Measurements taken from US20190388510A1, “GLUCAGON-T3 CONJUGATES” (priority 2016, published 2019).

Tests used:
Assay type in all cases: in vivo, mouse
DIO mice [1] = experiment: Glycemic control in DIO mice; details: i.p. pyruvate 1.5 g kg-1
Protocol: (§1) Compounds were administered by repeated subcutaneous injections in the middle of the light phase at the indicated doses with the indicated durations. Co-administration of compounds was administered by single formulated injections. Body weights and food intake were measured every day or every other day after the first injection. All studies with wild-type mice were performed with a group size of n=8 or greater using mice on a C57B16j background.
For assessment of glucose, pyruvate, and insulin tolerance during chronic treatment, the challenge tests were performed at least 24 hours after the last administration of compounds. […]
Energy intake, energy expenditure, respiratory exchange ratio, and home-cage activity were assessed using a combined indirect calorimetry system (TSE Systems). O2 consumption and CO2 production were measured every 10 min for a total of up to 120 h (after 24 h of adaptation) to determine the respiratory quotient and energy expenditure after an initial treatment regimen. Food intake was determined continuously for the same time as the indirect calorimetry assessments by integration of scales into the sealed cage environment. Home-cage locomotor activity was determined using a multidimensional infrared light beam system with beams scanning the bottom and top levels of the cage, and activity being expressed as beam breaks. […]

[2] = system: diet-induced obese (DIO) mice
Source text: For studies on lipid handling in wildtype mice (Western mice), male C57Bl/6j mice (Jackson Laboratories) were fed a atherogenic Western diet (Research Diets D12079B), which is a high-cholesterol diet (0.21% gm %) with 41% kcal from fat, 43% kcal from carbohydrates, and 17% kcal from protein. For studies on energy metabolism in obese mice (DIO mice), male C57Bl/6j mice (Jackson Laboratories) were fed a diabetogenic diet (Research Diets D12331), which is a high-sucrose diet with 58% kcal from fat 25.5% kcal from carbohydrates, and 16.4% kcal from protein. Both dietary challenges began at 8 weeks of age. HFHSD and HFHCD mice were single- or group-housed on a 12:12-h light-dark cycle at 22° C. with free access to food and water. Mice were maintained under these conditions for a minimum of 16 weeks before initiation of pharmacological studies and were between the ages of 6 months to 12 months old. All injections and tests were performed during the light cycle. Compounds were administered in a vehicle of 1% Tween-80 and 1% DMSO and were given by daily subcutaneous injections at the indicated doses at a volume of 5 μl per g body weight. Mice were randomized and evenly distributed to test groups according to body weight and body composition. If ex vivo molecular biology/histology/biochemistry analyses were performed, the entire group of mice for each treatment was analyzed and scored in a blinded fashion.
as §1
Whole-body composition (fat and lean mass) was measured using nuclear magnetic resonance technology (EchoMRI).
Energy intake, energy expenditure, respiratory exchange ratio, and home-cage activity were assessed using a combined indirect calorimetry system (TSE Systems). O2 consumption and CO2 production were measured every 10 min for a total of up to 120 h (after 24 h of adaptation) to determine the respiratory quotient and energy expenditure after an initial treatment regimen. Food intake was determined continuously for the same time as the indirect calorimetry assessments by integration of scales into the sealed cage environment. Home-cage locomotor activity was determined using a multidimensional infrared light beam system with beams scanning the bottom and top levels of the cage, and activity being expressed as beam breaks.
Blood was collected at the indicated times from tail veins or after euthanasia using EDTA-coated microvette tubes (Sarstedt), immediately chilled on ice, centrifuged at 5,000 g and 4° C., and plasma was stored at −80° C. For […] (FPLC) of cholesterol distribution in different lipoprotein fractions, fresh plasma from each treatment group was pooled (n=6-8) and ran over two Superose 6 HR columns in tandem. Cholesterol levels in the collected fractions were determined by colorimetric assay. Plasma insulin and T3 were quantified by an ELISA assay (Ultrasenstive Mouse Insulin ELISA and Rodent T3 ELISA; Alpco). Plasma FGF21 was quantified by an ELISA assay (Mouse FGF21 ELISA; Millipore). Plasma cholesterol, extracted hepatic cholesterol, triglycerides, ALT, and AST were measured using enzymatic assay kits (Thermo Fisher). Plasma creatinine and blood urea nitrogen were measured using enzymatic assay kits (Abcam). Plasma free fatty acids were measured using enzymatic assay kits (Wako). All assays were performed according to the manufacturers' instructions. […]

DIO mice [3] = experiment: Cardiac function and histology in DIO mice (echocardiography)
Protocol: After chronic treatment, HFHCD-fed or HFHSD-fed C57B16/j male mice (age) were sacrificed with CO2, body weight as well as heart weights and tibia length was taken during necropsy. Livers and whole hearts were embedded in paraffin using a vacuum infiltration processor TissueTEK VIP (Sakura). 3 μm thick slides were cut using a HMS35 rotatory microtome (Zeiss) and H & E staining was performed. For H & E staining, rehydration was done in a decreasing ethanol series, rinsing with tapwater, 2 min Mayers acid Hemalum, bluing in tapwater followed by lmin EosinY (both BioOptica). Dehydration was performed in increasing ethanol series, mounting with Pertex® (Medite GmbH) and coverslips (CarlRoth Chemicals). The slides were evaluated independently using a brightfield microscope (Axioplan, Zeiss). Photos were taken using the Hamamatsu-Nanozoomer HT2.0 in 1.25×, 5×. 20× and 40× magnification. The hepatic steatosis score is defined as the unweighted sum of the three individual scores for steatosis, lobular inflammation and ballooning degeneration. Steatosis is graded by the presence of fat vacuoles in liver cells according to the percentage of affected tissue (0: <5%; 1: 5-33%; 2: 33-66%; 3: >66%). Lobular inflammation is scored by overall assessment of inflammatory foci per 200× field (0: no foci; 1: <2 foci; 2: 2-4 foci; 3: >4 foci). The individual score for ballooning degeneration ranges from 0 (none), 1 (few cells) to 2 (many cells). Total scores range from 0 to 8 with scores <2 considered non-steatosis, 3 considered as borderline steatosis, 4-5 considered onset of steatosis, and >6 considered steatosis. Different to liver and heart, inguinal fat pad samples were embedded in paraffin using Leica embedding machine (EG1150 H) and cut in 5 μm sections using Leica Microtome (RM2255) to perform H&E staining. Samples were stained with hematoxyline for 4 minutes and eosinY for 2 minutes and fixed with Roti®-Histokitt (Carl Roth) before analysing them independently using Microscope Scope A.1 (Zeiss).
For transthoracic echocardiography, a Vevo2100 Imaging System (VisualSonics Inc., Toronto Canada) with a 30 MHz probe was used. All echocardiograms were performed on conscious animals to prevent anesthesia-related impairment of cardiac function as reported previously. Briefly, echocardiograms were obtained in parasternal long and short axis views. For accurate linear measurements of LV internal dimensions (LVID) and […] (LVPW) or septal (IVS) wall thicknesses, M-mode images of the heart in parasternal short-axis view at the level of the papillary muscle were acquired. Qualitative and quantitative measurements were made offline using analytical software (VisualSonics Inc.). Fractional shortening (FS) was calculated as FS %=[(LVIDd−LVIDs)/LVIDd]×100. Ejection fraction (EF) was calculated as EF %=100*((LVvolD−LVvolS)/LVvolD) with LVvol=((7.0/(2.4+LVID)*LVID^3). The corrected LV mass (LV MassCor) was calculated as LV MassCor=0.8(1.053*((LVIDd+LVPWd+IVSd)^3−LVIDd^3)). Heart rate and respiration rate were determined from M-mode tracings, using 3 consecutive intervals.
Gene expression profiling in the liver, iWAT, eWAT, BAT, and heart were performed following treatment of mice according to the treatment paradigms explained in the figure legends for each specific analsysis. For tissue collection, mice were fasted for 4 h and treated with compounds 2 h prior to tissue collection. Gene expression was profiled with quantitative real-time RT-PCR using either TaqMan single probes or with specifically-designed TaqMan low-density array cards. The relative expression of the selected genes was normalized to the reference gene hypoxanthine-guanine phosphoribosyltransferase (Hprt).

## N[C@@H](Cc1cc(I)c(Oc2ccc(O)c(I)c2)c(I)c1)C(=O)O [T3, 3,5,3′-triiodothryonine]
DIO mice [1]
  pyruvate tolerance (hepatic glucose output): substantially improved
[2]; DIO mice on HFHSD
  home cage (ambulatory) activity: significantly increased
[2]; DIO mice on HFHSD, 7 days
  food intake: increased
[2]; DIO mice on HFHSD, equimolar doses, 100 nmol kg-1 daily, 7 days
  body weight lowering: Neither glucagon nor T3 appreciably lowered body weight
[2]; DIO mice on HFHSD, indirect calorimetry
  whole-body energy expenditure: substantially increased
[2]; mouse, in vivo
  circulating levels of T3: resulted in an increase
  rectal temperature: increased rectal temperature
DIO mice [3]; histological profiling of the hearts
  heart histology: cell death: marked cell death was detectable
DIO mice [3]; mouse, in vivo
  heart histology: thyrotoxic cardiomyopathy: marked features of thyrotoxic cardiomyopathy
  whole heart expression of T3-sensitive genes (Dio2, Ucp2): directly increased
  whole heart expression of hypertrophic gene markers (Nppa, Nppb): directly increased
